Measured values as given in PubChem BioAssay (NCI).
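Growth conditions: 96-well plates. Treatment: test compound, 48 hours, 5 concentrations. Analysis: linear interpolation between bracketing concentrations; unreached endpoints set to highest concentration. GI50 marks 50% less growth. TGI: concentration producing complete growth inhibition.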

Columns and labels:
Assay in all cases: growth of human tumour cells (NCI), 48 h
[1] = test system: 786-0 renal
[2] = test system: A549 NSCLC
[3] = test system: ACHN renal
[4] = test system: BT-549 breast
[5] = test system: CAKI-1 renal
[6] = test system: CCRF-CEM leukemia
[7] = test system: COLO 205 colon
[8] = test system: DU-145 prostate
[9] = test system: EKVX NSCLC
[10] = test system: HCC-2998 colon
[11] = test system: HCT-116 colon
[12] = test system: HCT-15 colon
[13] = test system: HOP-62 NSCLC
[14] = test system: HOP-92 NSCLC
[15] = test system: HS 578T breast
[16] = test system: HT29 colon
[17] = test system: IGROV1 ovarian
[18] = test system: K-562 leukemia
[19] = test system: KM12 colon
[20] = test system: LOX IMVI melanoma
[21] = test system: M14 melanoma
[22] = test system: MCF7 breast
[23] = test system: MDA-MB-231 breast
[24] = test system: MDA-MB-435
[25] = test system: MOLT-4 leukemia
[26] = test system: NCI-H23 lung
[27] = test system: NCI-H460 lung
[28] = test system: NCI-H522 lung
[29] = test system: NCI/ADR-RES ovarian
[30] = test system: OVCAR-3 ovarian
[31] = test system: OVCAR-4 ovarian
[32] = test system: OVCAR-5 ovarian
[33] = test system: OVCAR-8 ovarian
[34] = test system: PC-3 prostate
[35] = test system: RPMI-8226 leukemia
[36] = test system: RXF 393 renal
[37] = test system: SF-268 CNS
[38] = test system: SF-295 CNS
[39] = test system: SF-539 CNS
[40] = test system: SK-MEL-2 melanoma
[41] = test system: SK-MEL-28 melanoma
[42] = test system: SK-MEL-5 melanoma
[43] = test system: SK-OV-3 ovarian
[44] = test system: SN12C renal
[45] = test system: SNB-19 CNS
[46] = test system: SNB-75 CNS
[47] = test system: SW-620 colon
[48] = test system: T-47D breast
[49] = test system: TK-10 renal
[50] = test system: U251 CNS
[51] = test system: UACC-257 melanoma
[52] = test system: UACC-62 melanoma
[53] = test system: UO-31 renal
[54] = test system: HL-60(TB) leukemia
[55] = test system: MALME-3M melanoma
[56] = test system: SR leukemia
[57] = test system: A498 renal
[58] = test system: NCI-H226 lung

Compound: CN1C(=O)/C(=C2\S/C(=N\c3nnc(-c4ccccc4)o3)NC2=O)c2ccccc21
- GI50 [1]: > 100 µM
- TGI [1]: > 100 µM
- GI50 [2]: 43.9 µM
- TGI [2]: > 100 µM
- GI50 [3]: > 100 µM
- TGI [3]: > 100 µM
- GI50 [4]: > 100 µM
- TGI [4]: > 100 µM
- GI50 [5]: 51.8 µM
- TGI [5]: > 100 µM
- GI50 [6]: 63.7 µM
- TGI [6]: > 100 µM
- GI50 [7]: > 100 µM
- TGI [7]: > 100 µM
- GI50 [8]: > 100 µM
- TGI [8]: > 100 µM
- GI50 [9]: > 100 µM
- TGI [9]: > 100 µM
- GI50 [10]: > 100 µM
- TGI [10]: > 100 µM
- GI50 [11]: 92.4 µM
- TGI [11]: > 100 µM
- GI50 [12]: > 100 µM
- TGI [12]: > 100 µM
- GI50 [13]: 68.8 µM
- TGI [13]: > 100 µM
- GI50 [14]: > 100 µM
- TGI [14]: > 100 µM
- GI50 [15]: > 100 µM
- TGI [15]: > 100 µM
- GI50 [16]: > 100 µM
- TGI [16]: > 100 µM
- GI50 [17]: 59.9 µM
- TGI [17]: > 100 µM
- GI50 [18]: > 100 µM
- TGI [18]: > 100 µM
- GI50 [19]: > 100 µM
- TGI [19]: > 100 µM
- GI50 [20]: 77.9 µM
- TGI [20]: > 100 µM
- GI50 [21]: > 100 µM
- TGI [21]: > 100 µM
- GI50 [22]: 91.9 µM
- TGI [22]: > 100 µM
- GI50 [23]: > 100 µM
- TGI [23]: > 100 µM
- GI50 [24]: > 100 µM
- TGI [24]: > 100 µM
- GI50 [25]: > 100 µM
- TGI [25]: > 100 µM
- GI50 [26]: > 100 µM
- TGI [26]: > 100 µM
- GI50 [27]: 65.6 µM
- TGI [27]: > 100 µM
- GI50 [28]: > 100 µM
- TGI [28]: > 100 µM
- GI50 [29]: 84.7 µM
- TGI [29]: > 100 µM
- GI50 [30]: > 100 µM
- TGI [30]: > 100 µM
- GI50 [31]: > 100 µM
- TGI [31]: > 100 µM
- GI50 [32]: > 100 µM
- TGI [32]: > 100 µM
- GI50 [33]: > 100 µM
- TGI [33]: > 100 µM
- GI50 [34]: > 100 µM
- TGI [34]: > 100 µM
- GI50 [35]: > 100 µM
- TGI [35]: > 100 µM
- GI50 [36]: > 100 µM
- TGI [36]: > 100 µM
- GI50 [37]: > 100 µM
- TGI [37]: > 100 µM
- GI50 [38]: 41.2 µM
- TGI [38]: > 100 µM
- GI50 [39]: > 100 µM
- TGI [39]: > 100 µM
- GI50 [40]: > 100 µM
- TGI [40]: > 100 µM
- GI50 [41]: > 100 µM
- TGI [41]: > 100 µM
- GI50 [42]: 90.1 µM
- TGI [42]: > 100 µM
- GI50 [43]: > 100 µM
- TGI [43]: > 100 µM
- GI50 [44]: > 100 µM
- TGI [44]: > 100 µM
- GI50 [45]: > 100 µM
- TGI [45]: > 100 µM
- GI50 [46]: > 100 µM
- TGI [46]: > 100 µM
- GI50 [47]: > 100 µM
- TGI [47]: > 100 µM
- GI50 [48]: > 100 µM
- TGI [48]: > 100 µM
- GI50 [49]: > 100 µM
- TGI [49]: > 100 µM
- GI50 [50]: 66.4 µM
- TGI [50]: > 100 µM
- GI50 [51]: 34.4 µM
- TGI [51]: > 100 µM
- GI50 [52]: 79.2 µM
- TGI [52]: > 100 µM
- GI50 [53]: > 100 µM
- TGI [53]: > 100 µM

Compound: O=c1sc(Nc2ccc3ccccc3c2Cl)nc2ccccc12
- TGI [1]: > 100 µM
- TGI [2]: > 100 µM
- TGI [3]: > 100 µM
- TGI [4]: > 100 µM
- TGI [5]: > 100 µM
- TGI [6]: > 100 µM
- TGI [7]: > 100 µM
- TGI [8]: > 100 µM
- TGI [9]: > 100 µM
- TGI [10]: > 100 µM
- TGI [11]: > 100 µM
- TGI [12]: > 100 µM
- TGI [54]: > 100 µM
- TGI [13]: > 100 µM
- TGI [14]: > 100 µM
- TGI [15]: > 100 µM
- TGI [16]: > 100 µM
- TGI [17]: > 100 µM
- TGI [18]: > 100 µM
- TGI [19]: > 100 µM
- TGI [20]: > 100 µM
- TGI [55]: > 100 µM
- TGI [22]: > 100 µM
- TGI [23]: > 100 µM
- TGI [24]: > 100 µM
- TGI [26]: > 100 µM
- TGI [27]: > 100 µM
- TGI [28]: > 100 µM
- TGI [29]: > 100 µM
- TGI [30]: > 100 µM
- TGI [31]: > 100 µM
- TGI [32]: > 100 µM
- TGI [34]: > 100 µM
- TGI [35]: > 100 µM
- TGI [36]: > 100 µM
- TGI [37]: > 100 µM
- TGI [38]: > 100 µM
- TGI [39]: > 100 µM
- TGI [40]: > 100 µM
- TGI [41]: > 100 µM
- TGI [42]: > 100 µM
- TGI [43]: > 100 µM
- TGI [44]: > 100 µM
- TGI [45]: > 100 µM
- TGI [46]: > 100 µM
- TGI [56]: > 100 µM
- TGI [47]: > 100 µM
- TGI [48]: > 100 µM
- TGI [49]: > 100 µM
- TGI [50]: > 100 µM
- TGI [51]: > 100 µM
- TGI [52]: > 100 µM
- TGI [53]: > 100 µM

Compound: O=C(NC1CCN(Cc2ccccc2)CC1)c1cccc(I)c1
- TGI [1]: 57.8 µM
- TGI [57]: > 100 µM
- TGI [2]: > 100 µM
- TGI [3]: > 100 µM
- TGI [4]: > 100 µM
- TGI [5]: 54.5 µM
- TGI [6]: > 100 µM
- TGI [7]: 32.5 µM
- TGI [8]: > 100 µM
- TGI [9]: > 100 µM
- TGI [11]: 28.9 µM
- TGI [12]: 35.6 µM
- TGI [54]: > 100 µM
- TGI [13]: 30.6 µM
- TGI [14]: 62.7 µM
- TGI [15]: 83 µM
- TGI [16]: 43.7 µM
- TGI [17]: > 100 µM
- TGI [18]: > 100 µM
- TGI [19]: 33.6 µM
- TGI [20]: 37.8 µM
- TGI [21]: 30.9 µM
- TGI [55]: 32.5 µM
- TGI [23]: 32.1 µM
- TGI [24]: 34.9 µM
- TGI [25]: > 100 µM
- TGI [58]: 78.1 µM
- TGI [26]: 63.3 µM
- TGI [27]: 63.7 µM
- TGI [28]: 32.9 µM
- TGI [29]: > 100 µM
- TGI [30]: > 100 µM
- TGI [31]: > 100 µM
- TGI [32]: > 100 µM
- TGI [33]: > 100 µM
- TGI [34]: > 100 µM
- TGI [35]: 69.2 µM
- TGI [36]: > 100 µM
- TGI [37]: > 100 µM
- TGI [38]: 33.8 µM
- TGI [39]: 51.6 µM
- TGI [40]: 38.5 µM
- TGI [41]: 37.4 µM
- TGI [42]: 31.2 µM
- TGI [43]: 42.8 µM
- TGI [44]: > 100 µM
- TGI [45]: > 100 µM
- TGI [56]: 80.3 µM
- TGI [47]: 30.9 µM
- TGI [48]: 61 µM
- TGI [49]: 65.2 µM
- TGI [50]: 56.2 µM
- TGI [51]: 33.2 µM
- TGI [52]: 40.1 µM
- TGI [53]: 31.6 µM
